Entries after “also recorded” stand apart in the source; their conditions may differ. Like-named read-outs stand apart in the source and are kept apart here.
Tests used:
[1] = system: ABH2; parameters: method as in PMID 21460794; details: read-out: Km^app(2OG); cited from earlier work
[2] = system: KDM4A; parameters: method as in PMID 21460794; details: read-out: Km^app(2OG); cited from earlier work
[3] = system: BBOX; details: cited from earlier work; for IC50: enzyme concentration 0.025 μM
[4] = system: TET1; details: cited from earlier work
[5] = system: FIH; details: cited from earlier work
[6] = system: TET2; details: cited from earlier work
[7] = system: KDM2A; parameters: method as in PMID 21460794; details: cited from earlier work; for IC50: enzyme concentration 2 μM
[8] = system: KDM4E; details: cited from earlier work; for IC50: enzyme concentration 2 μM
[9] = molecular target: T1, KDM5B (Homo sapiens, UniProt Q9UGL1); details: FDH-coupled assay, truncated KDM5B, cited from earlier work
T1 construct: purified recombinant KDM5B (produced in Sf9 insect cells, M1-R822); made in house; host or cells: Sf9 insect cells
T1 sequence (Q9UGL1 1-822): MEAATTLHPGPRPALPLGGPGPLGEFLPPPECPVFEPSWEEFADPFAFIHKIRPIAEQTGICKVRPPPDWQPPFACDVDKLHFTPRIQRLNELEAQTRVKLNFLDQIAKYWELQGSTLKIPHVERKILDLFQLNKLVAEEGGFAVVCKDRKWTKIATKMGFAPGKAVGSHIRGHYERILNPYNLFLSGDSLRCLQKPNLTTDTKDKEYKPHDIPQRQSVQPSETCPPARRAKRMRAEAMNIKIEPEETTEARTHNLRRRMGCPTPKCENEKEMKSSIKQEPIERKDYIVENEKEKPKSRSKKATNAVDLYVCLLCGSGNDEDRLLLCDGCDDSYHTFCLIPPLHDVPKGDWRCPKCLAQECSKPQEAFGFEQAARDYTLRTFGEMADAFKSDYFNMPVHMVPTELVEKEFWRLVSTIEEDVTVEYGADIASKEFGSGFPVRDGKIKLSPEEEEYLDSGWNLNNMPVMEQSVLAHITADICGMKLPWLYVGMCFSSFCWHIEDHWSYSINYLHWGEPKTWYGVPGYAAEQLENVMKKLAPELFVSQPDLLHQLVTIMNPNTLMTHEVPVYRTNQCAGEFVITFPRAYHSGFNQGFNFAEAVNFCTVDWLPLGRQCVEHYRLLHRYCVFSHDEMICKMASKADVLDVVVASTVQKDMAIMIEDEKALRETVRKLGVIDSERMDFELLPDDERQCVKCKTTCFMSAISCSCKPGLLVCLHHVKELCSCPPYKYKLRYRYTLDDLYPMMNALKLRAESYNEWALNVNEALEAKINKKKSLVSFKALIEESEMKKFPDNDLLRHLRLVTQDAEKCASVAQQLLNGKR

[10] = system: KDM4C; parameters: method as in PMID 21460794; details: read-out: Km^app(2OG); cited from earlier work
[11] = system: PHD2; details: cited from earlier work
[12] = molecular target: T1, KDM5B; assay: KDM5B inhibition assay, MALDI-TOF-MS (IC50); assay type: biochemical
[13] = system: T2, over-expressed KDM5B in U2-OS cells; assay: Immunofluorescence assay of H3K4me3 demethylation in U2-OS cells overexpressing KDM5B; assay type: cell-based, human; details: for inhibition of KDM5B-mediated H3K4me3 demethylation (IF): U2-OS cells overexpressing Flag-tagged WT KDM5B, 24 h treatment, esters dosed up to 5–10 mM
T2 construct: expressed in transfected cells; host or cells: U2-OS osteosarcoma cells, transient transfection with pCDNA5-FRT-TO-3FLAG vector
Procedure: EC50 curves for cells overexpressing Flag-tagged KDM5B. […] Results for dimethyl-2OG (a), dimethyl-succinate (b), dimethyl-D-2HG (c), dimethyl-L-2HG (d), octyl-D-2HG (e), octyl-L-2HG (f), and KDOAM-25 (g). Dashed lines represent IF levels in non-inhibitor controls.
The cellular effects of dimethyl ester precursors of TCA cycle-related metabolites as potential inhibitors of H3K4me3 demethylation were then assessed. We used an established immunofluorescence (IF) procedure with ectopically overexpressed wild-type KDM5B (WT KDM5B) in U2-OS cells and anti-H3K4me3 antibody monitoring for changes in H3K4me3 methylation levels. […] Cells with overexpressed KDM5B were treated with different concentrations of the TCA cycle-related pro-drug esters (previously established as cell permeable in other cell-based studies), [51], [52], [53], [54] for 24 h, the H3K4me3 levels were then analyzed in the transfected cells. The reported KDM5B inhibitor KDOAM-25 ((2)-((((2)-(((2)-(dimethylamino)ethyl)(ethyl)amino)-(2)-oxoethyl)amino)methyl)isonicotinamide) was used as a positive control for inhibition, [55].
Immunofluorescent cell-based assays were performed as reported. The human U2-OS osteosarcoma cells were cultured as a monolayer in Dulbecco's modified Eagle's medium (Invitrogen) supplemented with 10% heat-inactivated fetal bovine serum (Life Technologies) and 1% Glutamax. […] Cells were transiently transfected using cDNA and Lipofectamine 3000 (Life Technologies). Four hours after transfection, the cells were subjected to treatment with serial dilutions of compound. After 24 h, the cells were fixed with 4% formaldehyde and stained with anti-Flag antibody (Sigma F3165), an anti-methylated histone antibody (H3K4me3 DiagenodeC15410003). The cells were then stained with secondary antibodies [Alexa Fluor 488 and Alexa Fluor 568-labeled (Life Technologies)] and 4’,6-diamidino-2-phenylindole. Image acquisition was conducted using Operetta High Content Imaging System (PerkinElmer), and image analysis was performed using the Columbus software (PerkinElmer). A minimum threshold for anti-Flag intensity was set to ensure that only cells highly producing the demethylase were analyzed.

[14] = system: isolated KDM5B; parameters: method as in PMID 28262558; details: AlphaScreen assay; cited from earlier work
[15] = molecular target: T1, KDM5B; assay: KDM5B kinetic assays, MALDI-TOF-MS (Km, Ki with respect to 2OG); assay type: biochemical; details: for mode of inhibition: with respect to 2OG
[16] = system: U2-OS cells; assay: Toxicity to U2-OS cells in the cellular assay; assay type: cell-based, human; details: data not shown
[17] = 0.6 μM KDM5B, 3 μM 2OG, 5 μM H3K4me2(1–21), 10 μM Fe(II), 500 μM L-ascorbate, pH 7.5, errors 95% confidence intervals

In the case of O=C(O)CCC(=O)C(=O)O [2OG, 2-oxoglutarate], the Km [1] is listed as 10 µM, the Km [2] is listed as 6 µM and the Km ([3]; read-out: Km^app(2OG)) is listed as 470 µM. For the same compound, the Km ([4]; read-out: Km^app(2OG)) was 55 ± 20 µM, the Km ([5]; read-out: Km^app(2OG)) was 110 ± 20 µM and the Km ([6]; read-out: Km^app(2OG)) was 60 ± 15 µM. The Km ([7]; read-out: Km^app(2OG)) was 12.5 µM, the Km ([8]; read-out: Km^app(2OG)) was 13.2 µM and the Km ([9]; read-out: Km^app(2OG)) was 6 µM. The Km [10] was 4 µM and the Km ([11]; read-out: Km^app(2OG)) was 13 ± 2 µM.
In the case of O=C(O)CC(O)(CC(=O)O)C(=O)O [Citrate], the IC50 [12, 17] is reported as “Inactive”, the IC50 ([12]; read-out: IC50) is reported as over 1000 µM and the inhibition at 1000 µM ([12]; read-out: inhibition at 1 mM) is reported as 18%.
For O=C(O)CC[C@@H](O)C(=O)O [D-2HG, D-2-hydroxyglutarate], the IC50 [3] is listed as 13200 µM, the IC50 [6] is listed as 5000 µM and the IC50 [7] is listed as 106 ± 22 µM.
In the case of O=C(O)/C=C/C(=O)O [Fumarate], the IC50 [4] is listed as 390 ± 160 µM, the IC50 [5] is listed as over 1000 µM and the IC50 [6] is listed as 400 ± 70 µM. The IC50 [8] was 2.3 µM, the IC50 [12] was 210 ± 80 µM and the IC50 [11] was 3 µM.
In the case of CCN(CCN(C)C)C(=O)CNCc1cc(C(N)=O)ccn1 [KDOAM-25, (2)-((((2)-(((2)-(dimethylamino)ethyl)(ethyl)amino)-(2)-oxoethyl)amino)methyl)isonicotinamide], the “inhibition of KDM5B-mediated H3K4me3 demethylation (IF)” value (“inhibition … (IF)” for short) [13] is listed as “manifested the expected levels of inhibition; also recorded: observe inhibition”, the “compound concentration at which H3K4me3 fluorescence reaches levels of KDM5B Mut” value ([13]; U2-OS cells overexpressing WT KDM5B, 24 h) is listed as 1 mM and the IC50 [14] is listed as 0.019 µM.
For O=C(O)CC[C@H](O)C(=O)O [L-2HG, L-2-hydroxyglutarate], the IC50 [3] is given as 142 ± 30 µM, the IC50 [4] is given as 1000 µM and the IC50 ([5]; enzyme concentration 1 μM) is given as 189 ± 34 µM. The IC50 [6] was 1600 µM and the IC50 [7] was 48 ± 15 µM.
Work on O=C(O)CC(O)C(=O)O (centres unmarked) [Malate, malate] yielded an IC50 ([12]; read-out: IC50) of 127 ± 72 µM.
With O=C(O)CC(=O)C(=O)O [Oxaloacetate] the IC50 ([12]; read-out: IC50) was 15 ± 10 µM, the “Vm^app” value ([15]; in presence of 15 μM oxaloacetate) was 0.0066 µM/s and the “Vm^app” value ([15]; in presence of 50 μM oxaloacetate) was 0.0070 µM/s. The “Vm^app” value ([15]; in presence of 100 μM oxaloacetate) was 0.0069 µM/s and the mode of inhibition [15] was 2OG competitive manner.
In the case of CC(=O)C(=O)O [Pyruvate, pyruvate], the IC50 [12, 17] is reported as “very weak KDM5B inhibitor” and the IC50 ([12]; read-out: IC50) is reported as 703 ± 26 µM.
For O=C(O)CCC(=O)O [Succinate, succinate], the IC50 [4] is given as 540 ± 100 µM, the IC50 [5] is given as over 1000 µM and the IC50 [6] is given as 570 ± 190 µM. For the same compound, the IC50 [8] was 320 µM, the IC50 ([12]; read-out: IC50) was 62 ± 19 µM and the Ki ([15]; competitive inhibition model, shared/global fit, read-out: Ki (best-fit value, GraphPad Prism global fit)) was 26.8 µM. For the same compound, the “Vm^app” value ([15]; in presence of 30 μM succinate) was 0.0044 µM/s, the “Vm^app” value ([15]; in presence of 100 μM succinate) was 0.0046 µM/s and the “Vm^app” value ([15]; in presence of 300 μM succinate) was 0.0046 µM/s. For the same compound, the mode of inhibition [15] was 2OG competitive manner and the IC50 [11] was 19 µM.
In the case of COC(=O)CCC(=O)C(=O)OC [dimethyl-2OG, Dimethyl-2-oxoglutarate], the “inhibition … (IF)” value [13] is reported as “do not inhibit; also recorded: no inhibition of KDM5B activity was observed” and the “change in H3K4me3 levels / KDM5B activity in response to compound” value ([13]; U2-OS cells overexpressing KDM5B, increasing concentrations, 24 h) is reported as “No decrease in the H3K4me3 levels was observed; also recorded: did not show any effect”.
In the case of COC(=O)CC[C@@H](O)C(=O)OC [dimethyl-D-2HG], the “inhibition … (IF)” value [13] is reported as “do not inhibit; also recorded: no inhibition of KDM5B activity was observed”.
For COC(=O)CC[C@H](O)C(=O)OC [dimethyl-L-2HG], the “inhibition … (IF)” value [13] was “do not inhibit; also recorded: no inhibition of KDM5B activity was observed”.
In the case of COC(=O)CCC(=O)OC [dimethyl-succinate, dimethylsuccinate], the “inhibition … (IF)” value [13] is reported as “do not inhibit”.
In the case of COC(=O)/C=C/C(=O)OC [dimethylfumarate], the “inhibition … (IF)” value [13] is reported as “no inhibition of KDM5B activity was observed”, the “inhibition … (IF)” value ([13]; listed as Dimethylfumarate) is reported as “did not show any inhibition at lower concentrations” and the toxic concentration [16] is reported as “higher than 400 μM”.
With CCCCCCCCOC(=O)[C@H](O)CCC(=O)O [octyl-D-2HG] the “inhibition … (IF)” value [13] was “do not inhibit; also recorded: no inhibition of KDM5B activity was observed”.
With CCCCCCCCOC(=O)[C@@H](O)CCC(=O)O [octyl-L-2HG] the “inhibition … (IF)” value [13] was “do not inhibit; also recorded: no inhibition of KDM5B activity was observed”.
In the case of “H3K4me2(1–21): 21-mer histone H3 peptide fragment dimethylated at lysine-4, KDM5B substrate [reference compound]”, the Km ([9]; read-out: Km^app for H3K4me2(1–21)) is given as 0.85 µM and the Km ([15]; KDM5B(1–822), 10 μM 2OG, read-out: Km^app(H3K4me2(1–21))) is given as about 0.5 µM.
